Results on two compounds are retold here after article PMC9184463, “Structural basis of ligand binding modes of human EAAT2” (Nature Communications, 2022).

SMILES strings stand for the structures.

In experiment [1] the test system is hEAAT3. Also noted: method as in PMID: 7521911. Particulars: ref PMID: 7521911; cited from earlier work.
Experiment [2] deals with hEAAT1. The following applies: ref PMID: 7521911; cited from earlier work.
The test system of experiment [3] is hEAAT2. The following applies: ref PMID: 7521911; cited from earlier work.
The target of experiment [4] is T1, hEAAT2 mutant V468I (Homo sapiens, UniProt P43004, V468I).
T1 construct: Strep Tag II (N); superfolder GFP (sfGFP) (N); expressed in transfected cells; host or cells: HEK293T
Put plainly: whole-cell patch-clamp, hEAAT2 mutant V468I in HEK293T cells. It counts as cell-based. Particulars: for glutamate-induced current, normalized (MEAN): V468I, 0 mV. How it is done: (§1) Human embryonic kidney 293T (HEK293T) cells were cultured in Dulbecco’s Modified Eagle Medium (DMEM, Gibco) media supplemented with 15% (v/v) fetal bovine serum (FBS, PAN-Biotech) at 37 °C with 5% CO2. HEK293T cells were grown in the culture dishes (d = 3.5 cm) (Thermo Fisher Scientific) for 24 h and then 1 μg hEAAT2 wild-type and mutant plasmids for per dishes were used to transiently transfect HEK293T using 0.7 μg Lipofectamine 2000 Reagent (Thermo Fisher Scientific). Cells were analyzed using electrophysiological experiments between 24 and 40 h after transfection at room temperature (21–25 °C).
(§2) Electrophysiological experiments were performed as described previously with a minor modification. External buffer contained 140 mM NaCl, 2 mM MgCl2, 2 mM CaCl2, and 10 mM HEPES (pH = 7.4 with NaOH and osmolarity of ∼310 mosmol L^−1) and while internal pipette solution comprised of 130 mM NaSCN, 2 mM MgCl2, 10 mM EGTA, 10 mM HEPES (pH = 7.4 with NaOH and osmolarity of ∼310 mosmol L^−1) and 10 mM glutamate. 50 mM WAY-213613 stock solutions were prepared in dimethyl sulfoxide (DMSO), followed by dilutions to working concentrations with the above-mentioned external buffer. […] Whole cell patch-clamp experiment recordings were made from isolated GFP-positive HEK293T cells (hEAAT2 wild type and mutants). In all, 3–6 MΩ was used to fire a polished pipette (Sutter Instrument). […] Cells were immersed in the above-mentioned external buffer supplemented with a specified concentration of glutamate or WAY-213613. Glutamate-induced anion current, Na^+-dependent anion leak current and glutamate transport current or WAY-213613 inhibited anion leak currents were recorded using an EPC-10 amplifier (HEKA Electronic) at a 20 kHz sample rate with low pass filter at 5 kHz. All experiments were executed at 0 mV. After the cell current was stabilized, glutamate or WAY-213613 was sustained at the indicated concentrations from external dosing for at least 6 s. Subsequently, the cell was washed away with external buffer to start a new round of applications or end the experiment. The plateau currents were used for the following calculations. For analysis, the data was acquired by PatchMaster program (HEKA Electronic) at 5 s after recording. Nonlinear dose–response relationships were fitted into a Michaelis–Menten-like equation shown as below to obtain the apparent Km and Ki values in the presence of glutamate or WAY-213613.1 I/Imax=Km/i/C+Km/i In this equation, I represent the current at different glutamate or inhibitor concentrations, and Imax represents the maximal current at the saturating concentration of glutamate or inhibitor. [C] represents the concentration of glutamate or inhibitor. Km/i represents the apparent constant.

The target in experiment [5] is T2, hEAAT2 mutant I464V (Homo sapiens, UniProt P43004, I464V).
T2 construct: Strep Tag II (N); superfolder GFP (sfGFP) (N); expressed in transfected cells; host or cells: HEK293T
As to the kind of experiment: whole-cell patch-clamp, hEAAT2 mutant I464V in HEK293T cells. Type of experiment: cell-based. Particulars: for glutamate-induced current, normalized (MEAN): I464V, 0 mV. The procedure:
as §1, §2

Experiment [6] concerns the target T3, hEAAT2 mutant D475A (Homo sapiens, UniProt P43004, D475A).
T3 construct: Strep Tag II (N); superfolder GFP (sfGFP) (N); expressed in transfected cells; host or cells: HEK293T
As to the kind of experiment: whole-cell patch-clamp, hEAAT2 mutant D475A in HEK293T cells. Type of experiment: cell-based. How it is done:
as §1, §2

Experiment [7] addresses T4, wild-type hEAAT2 (Homo sapiens, UniProt P43004).
T4 construct: Strep Tag II (N); superfolder GFP (sfGFP) (N); expressed in transfected cells; host or cells: HEK293T
As to the kind of experiment: whole-cell patch-clamp of hEAAT2-associated anion current, wild-type hEAAT2 in HEK293T cells. It counts as cell-based. The procedure: as §1, §2

Experiment [8] addresses T5, hEAAT2 mutant L467I (Homo sapiens, UniProt P43004, L467I).
T5 construct: Strep Tag II (N); superfolder GFP (sfGFP) (N); expressed in transfected cells; host or cells: HEK293T
Put plainly: whole-cell patch-clamp, hEAAT2 mutant L467I in HEK293T cells. Type of experiment: cell-based. Particulars: for glutamate-induced current, normalized (MEAN): L467I, 0 mV. The procedure:
as §1, §2

For experiment [9], the target named is T6, hEAAT2 mutant R478A (Homo sapiens, UniProt P43004, R478A).
T6 construct: Strep Tag II (N); superfolder GFP (sfGFP) (N); expressed in transfected cells; host or cells: HEK293T
As to the kind of experiment: whole-cell patch-clamp, hEAAT2 mutant R478A in HEK293T cells. It counts as cell-based. How it is done: as §1, §2

The target in experiment [10] is T7, hEAAT2 mutant S441G (Homo sapiens, UniProt P43004, S441G).
T7 construct: Strep Tag II (N); superfolder GFP (sfGFP) (N); expressed in transfected cells; host or cells: HEK293T
Put plainly: whole-cell patch-clamp, hEAAT2 mutant S441G in HEK293T cells. It counts as cell-based. The following applies: 0 mV; for glutamate-induced current, normalized (MEAN): S441G, normalized to maximal current. The procedure:
as §1, §2

Where [11] appears, read: 3 μM glutamate, normalized to current at 1000 μM.
Setting [12] is: 10 μM glutamate, normalized to current at 1000 μM.
Setting [13] is: 30 μM glutamate, normalized to current at 1000 μM.
[14] abbreviates: 100 μM glutamate, normalized to current at 1000 μM.
Setting [15] is: 300 μM glutamate, normalized to current at 1000 μM.
[16] abbreviates: 1000 μM glutamate, normalization reference.

T6 sequence (P43004 whole entry R478A): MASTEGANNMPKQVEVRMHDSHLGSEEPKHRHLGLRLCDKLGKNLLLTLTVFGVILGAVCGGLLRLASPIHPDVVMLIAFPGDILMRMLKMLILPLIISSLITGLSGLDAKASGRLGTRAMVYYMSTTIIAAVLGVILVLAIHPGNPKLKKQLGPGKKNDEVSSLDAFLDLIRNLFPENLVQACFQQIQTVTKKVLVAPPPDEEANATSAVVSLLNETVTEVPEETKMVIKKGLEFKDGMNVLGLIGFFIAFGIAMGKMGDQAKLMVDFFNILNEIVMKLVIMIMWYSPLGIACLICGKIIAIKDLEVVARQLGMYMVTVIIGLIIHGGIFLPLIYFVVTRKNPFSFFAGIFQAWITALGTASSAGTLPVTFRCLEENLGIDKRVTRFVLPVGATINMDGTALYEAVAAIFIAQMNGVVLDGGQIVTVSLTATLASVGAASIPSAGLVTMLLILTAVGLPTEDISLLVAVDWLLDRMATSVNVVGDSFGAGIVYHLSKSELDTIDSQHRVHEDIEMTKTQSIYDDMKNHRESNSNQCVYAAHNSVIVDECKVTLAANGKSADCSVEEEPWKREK
T4 sequence (P43004 whole entry): as the sequence (P43004 whole entry R478A) above, with A478R counted along it
T7 sequence (P43004 whole entry S441G): as the sequence (P43004 whole entry R478A) above, with S441G, A478R counted along it
T5 sequence (P43004 whole entry L467I): as the sequence (P43004 whole entry R478A) above, with L467I, A478R counted along it
T3 sequence (P43004 whole entry D475A): as the sequence (P43004 whole entry R478A) above, with D475A, A478R counted along it
T1 sequence (P43004 whole entry V468I): as the sequence (P43004 whole entry R478A) above, with V468I, A478R counted along it
T2 sequence (P43004 whole entry I464V): as the sequence (P43004 whole entry R478A) above, with I464V, A478R counted along it

With `N[C@@H](CC(=O)O)C(=O)O` [aspartate], the Km in experiment [1] was 47 µM; in [2], 60 µM; in [3], 54 µM.
With `N[C@@H](CCC(=O)O)C(=O)O` [glutamate], the “glutamate-induced current, normalized (MEAN)” value worked out at 0.1059 in experiment [4] (setting [11]); 0.2526 in [4] (setting [12]); 0.5136 in [4] (setting [13]); 0.8108 in [4] (setting [14]); 0.9282 in [4] (setting [15]); 1 in experiment [4] (setting [16]). The “glutamate-induced current, normalized (MEAN)” value in [5] (setting [11]) came out at 0.1004; in [5] (setting [12]), 0.2675; in [5] (setting [13]), 0.5257; in experiment [5] (setting [14]), 0.7538; in [5] (setting [15]), 0.9218; in [5] (setting [16]), 1. Further, the “glutamate-induced current, normalized (MEAN)” value in [7] (3 μM glutamate, WT, 0 mV, normalized to current at 1000 μM glutamate) came out at 0.1101; in [7] (10 μM glutamate, WT, 0 mV, normalized to current at 1000 μM glutamate) it was 0.2265; in experiment [7] (30 μM glutamate, WT, 0 mV, normalized to current at 1000 μM glutamate) it was 0.5388; in experiment [7] (100 μM glutamate, WT, 0 mV, normalized to current at 1000 μM glutamate), 0.751; in experiment [7] (300 μM glutamate, WT, 0 mV, normalized to current at 1000 μM glutamate), 0.9307; in [7] (1000 μM glutamate, WT, 0 mV, normalization reference), 1. For the same compound, the “glutamate-induced current, normalized (MEAN)” value is listed as 0.09492 in [8] (setting [11]); 0.2532 in experiment [8] (setting [12]); 0.5328 in [8] (setting [13]); 0.7948 in experiment [8] (setting [14]); 0.9242 in [8] (setting [15]); 1 in [8] (setting [16]). Also, the “glutamate-induced current, normalized (MEAN)” value in experiment [10] (0.1 μM glutamate) was 0.1494; in experiment [10] (0.3 μM glutamate) it was 0.4931; in experiment [10] (1 μM glutamate) it was 0.73; in [10] (3 μM glutamate) it was 0.9123; in experiment [10] (10 μM glutamate) it was 1; in experiment [10] (30 μM glutamate), 1.038. Further, the “activation of anion current” value in experiment [4] (V468I mutant, glutamate in external solution) is “significantly activate anion current with similar efficacy as that of wild-type hEAAT2”; in experiment [5] (I464V mutant, glutamate in external solution), “significantly activate anion current with similar efficacy as that of wild-type hEAAT2”; in experiment [8] (L467I mutant, glutamate in external solution), “significantly activate anion current with similar efficacy as that of wild-type hEAAT2”. Besides, the “glutamate-related current density (MEAN)” value in experiment [6] (1mM Glutamate, D475A, 0 mV, Na+ dependent leak current subtracted) is given as 1.113 pA/pF; in experiment [7] (1mM Glutamate, WT, 0 mV, Na+ dependent leak current subtracted), -27.6784 pA/pF; in experiment [9] (1mM Glutamate, R478A, 0 mV, Na+ dependent leak current subtracted), 0.4954 pA/pF. In addition, the “activation of anion currents” value in [6] (D475A mutant, glutamate up to 1 mM) is recorded as “failed to activate anion currents”; in experiment [9] (R478A mutant, glutamate up to 1 mM) it was “failed to activate anion currents”. Further, the Km in experiment [1] is 62 µM; in [7] (wild-type hEAAT2, HEK293T, 0 mV, Michaelis-Menten-like fit, read-out: apparent Km (activation of anion current)) it was 30 ± 2.5 µM; in [2], 48 µM; in experiment [3] it was 97 µM; in experiment [10] (S441G mutant, read-out: apparent Km), 0.4 ± 0.03 µM. Moreover, the “effect of substrate on anion leak currents” value in [7] (wild-type hEAAT2) was “increased the amplitudes of anion leak currents”.
